Experimental data: PMC5889090 (Journal of medicinal chemistry, 2017)
Read-outs that look alike come from different tables or passages of the source.

Legend:
[1] = tested on: zebrafish neuromast hair cells; test: Zebrafish neuromast hair cell protection assay; details: for protective activity (in words) / EC50: 200 μM neomycin; for eudismic ratio (ER): HC50 of the less active versus the more active enantiomer
[2] = Preliminary i.v. toxicity and plasma half-life in rats; format: in vivo, rat
[3] = Aqueous solubility; format: physicochemical
[4] = tested on: E. coli ATCC25922; test: Interference with neomycin MIC/MBC; format: cell-based
[5] = Early / in vitro ADME profiling
[6] = Air oxidation stability; format: physicochemical; details: oxidation to inactive, highly fluorescent byproduct
[7] = tested on: Sprague-Dawley rats; test: Rat ABR assay, kanamycin-induced hearing loss; details: kanamycin 500 mg/kg/day s.c. 14 days + compound 25 mg/kg/day i.p.
[8] = In vitro toxicity against HepG2 cell line; details: human
[9] = tested on: CYP; test: CYP stability / inhibition
[10] = molecular target: hERG ion channel (Homo sapiens, UniProt Q12809); test: cell-based
[11] = tested on: M. tuberculosis; test: Interference with amikacin MIC; format: cell-based
[12] = tested on: five strains of P. aeruginosa; test: Interference with aminoglycoside MIC; format: cell-based
[13] = read-out: HC50, Tables 7, 8 and text, 50% hair cell protection

Sequence of hERG ion channel (Q12809 whole entry): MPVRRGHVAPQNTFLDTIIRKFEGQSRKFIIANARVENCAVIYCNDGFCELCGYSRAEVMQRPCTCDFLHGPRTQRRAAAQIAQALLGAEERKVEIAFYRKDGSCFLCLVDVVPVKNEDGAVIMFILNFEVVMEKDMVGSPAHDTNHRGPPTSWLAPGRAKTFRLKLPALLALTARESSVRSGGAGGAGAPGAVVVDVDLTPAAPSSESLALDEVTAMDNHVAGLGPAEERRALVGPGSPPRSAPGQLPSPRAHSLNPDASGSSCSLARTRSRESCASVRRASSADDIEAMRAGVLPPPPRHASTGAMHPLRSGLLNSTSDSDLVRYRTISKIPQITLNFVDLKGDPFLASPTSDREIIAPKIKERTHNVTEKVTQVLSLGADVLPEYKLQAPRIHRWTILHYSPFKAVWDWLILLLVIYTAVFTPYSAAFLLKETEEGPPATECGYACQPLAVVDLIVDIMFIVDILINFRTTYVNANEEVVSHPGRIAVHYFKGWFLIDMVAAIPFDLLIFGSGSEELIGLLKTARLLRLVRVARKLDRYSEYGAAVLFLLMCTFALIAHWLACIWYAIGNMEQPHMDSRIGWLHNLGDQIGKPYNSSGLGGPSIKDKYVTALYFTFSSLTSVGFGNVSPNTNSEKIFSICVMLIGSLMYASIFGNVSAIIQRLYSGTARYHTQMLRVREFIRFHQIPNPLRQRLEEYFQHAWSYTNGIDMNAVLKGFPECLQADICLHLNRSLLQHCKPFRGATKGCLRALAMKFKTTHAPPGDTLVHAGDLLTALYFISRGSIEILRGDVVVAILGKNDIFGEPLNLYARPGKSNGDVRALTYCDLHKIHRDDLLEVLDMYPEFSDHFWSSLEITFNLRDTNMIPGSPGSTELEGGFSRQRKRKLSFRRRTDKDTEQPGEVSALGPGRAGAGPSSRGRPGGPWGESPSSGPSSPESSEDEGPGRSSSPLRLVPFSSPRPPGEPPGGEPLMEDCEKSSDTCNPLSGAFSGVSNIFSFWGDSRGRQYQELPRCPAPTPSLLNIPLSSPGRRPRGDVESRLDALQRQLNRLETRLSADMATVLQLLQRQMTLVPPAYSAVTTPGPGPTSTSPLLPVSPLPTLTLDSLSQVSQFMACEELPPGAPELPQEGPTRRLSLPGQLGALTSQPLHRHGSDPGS

2-amino-4,5,6,7-tetrahydrothieno[2,3-c]pyridine-3-carboxamide [compound 28]
protective activity (in words) [1]: inactive

CCN1CCc2c(sc(NC(=O)Nc3ccc(Cl)cc3)c2C(N)=O)C1.Cl [compound 1, 2-[3-(4-Chlorophenyl)ureido]-6-ethyl-4,5,6,7-tetrahydrothieno[2,3-c]pyridine-3-carboxamide]
half-life ([2]; rat, plasma, iv, 25 mg/kg): 1.7 h | toxicity i.v. ([2]; rats, i.v., doses up to 25 mg/kg): non-toxic | aqueous solubility (in words) [3]: adequate | interference with neomycin minimal bactericidal concentration (MBC) [4]: no interference | interference with neomycin minimal inhibitory concentration (MIC) [4]: no interference | clearance profile (in words) ([5]; early ADME characterization): acceptable | membrane permeability (in words) ([5]; early ADME characterization): adequate | plasma protein binding (in words) ([5]; early ADME characterization): reasonable | air oxidation [6]: gradually undergo partial air oxidation | protection from kanamycin-induced hearing loss (ABR) ([7]; 8 and 16 kHz): completely prevented | protection from kanamycin-induced hearing loss (ABR) ([7]; 32 kHz): mostly resolved | IC50 [8]: > 300 µM | CYP stability or inhibition [9]: no issues

CCN1CCc2c(sc(NC(=O)NCc3cccc(Cl)c3)c2C(N)=O)C1.Cl [compound 11]
protective activity (in words) [1]: inactive

CCN1CCc2c(sc(NC(=O)NCC3CCCO3)c2C(N)=O)C1 (stereo not drawn) [compound 12]
protective activity (in words) [1]: inactive

CCN1CCc2c(sc(NC(=O)NCCN3CCOCC3)c2C(N)=O)C1 [compound 13]
protective activity (in words) [1]: inactive

CCN1CCc2c(sc(NC(=O)Nc3ccccc3)c2C(N)=O)C1.Cl [compound 14]
protective activity (in words) [1]: inactive

CCN1CCc2c(sc(NC(=O)Nc3cscc3C(=O)OC)c2C(N)=O)C1 [compound 15]
protective activity (in words) [1]: inactive

CCN1CCc2c(sc(NC(=O)Nc3ccc(Cl)cc3)c2C(=O)O)C1.O=C(O)C(F)(F)F [compound 16]
protective activity (in words) [1]: greatly reduces the activity

CCN1CCc2c(sc(NC(=O)Nc3ccc(Cl)cc3)c2C(=O)OC)C1.Cl [compound 17]
protective activity (in words) [1]: greatly reduces the activity

CCN1CCc2c(sc(NC(=O)Nc3ccc(Cl)cc3)c2C(=O)NC)C1.Cl [compound 18]
protective activity (in words) [1]: greatly reduces the activity

CCN1CCc2c(sc(NC(=O)Nc3ccc(Cl)cc3)c2C#N)C1.Cl [compound 19]
protective activity (in words) [1]: greatly reduces the activity

CCN1CCc2c(sc(NC(=O)Nc3ccc(Cl)cc3)c2C(=O)N2CCOCC2)C1.Cl [compound 20]
protective activity (in words) [1]: greatly reduces the activity

CCN1CCc2c(sc(NC(=O)Nc3ccc(Cl)cc3)c2C(=O)c2nc(C)no2)C1.Cl [compound 21]
protective activity (in words) [1]: inactive

CCN1CCc2c(sc(NC(=O)Nc3ccc(Cl)cc3)c2C(=O)c2nnco2)C1.Cl [compound 22]
protective activity (in words) [1]: inactive

CCN1CCc2c(sc(NC(=O)CN3CCCCC3)c2C(N)=O)C1 [compound 27]
protective activity (in words) [1]: no protective activity

CCN1CCc2c(sc(NC=O)c2C(N)=O)C1.Cl [compound 29]
protective activity (in words) [1]: no protective activity

CCN1CCc2c(sc(NC(=O)[C@@H]3CCCN3)c2C(N)=O)C1 [compound 30]
protective activity (in words) [1]: no protective activity

CCN1CCc2c(sc(NC(=O)C3(C(=O)Nc4ccc(Cl)cc4)CC3)c2C(N)=O)C1 [compound 31]
protective activity (in words) [1]: lack of potency

CCN1CCc2c(sc(NC(=O)c3ccccc3)c2C(N)=O)C1.Cl [compound 32]
protective activity (in words) [1]: no protective activity

CCN1CCc2c(sc(NC(=O)C3(c4ccc(Cl)cc4)CC3)c2C(N)=O)C1.Cl [compound 33]
protective activity (in words) [1]: no protective activity

CCN1CCc2c(ccc(NC(=O)Nc3ccc(Cl)cc3)c2C(N)=O)C1 [compound 38]
protective activity (in words) [1]: no potency

NC(=O)c1c(NC(=O)Nc2ccc(Cl)cc2)sc2c1CCN(CC1CC1)C2 [compound 53]
IC50 [10]: 2.67 µM

NC(=O)c1c(NC(=O)Nc2ccc(Cl)cc2)sc2c1CCN(CC1CCC1)C2 [compound 54]
IC50 [10]: 0.73 µM

CC(C)(C)OC(=O)N1CCc2c(sc(NC(=O)Nc3ccc(Cl)cc3)c2C(N)=O)C1 [compound 59]
protective activity (in words) [1]: completely suppressed

CC(C)(C)OC(=O)CN1CCc2c(sc(NC(=O)Nc3ccc(Cl)cc3)c2C(N)=O)C1 [compound 60]
protective activity (in words) [1]: completely suppressed

CC(C)(C)OC(=O)CCCN1CCc2c(sc(NC(=O)Nc3ccc(Cl)cc3)c2C(N)=O)C1 [compound 62]
IC50 [10]: 3.84 µM

CC(C)C[N+]1(C)CCc2c(sc(NC(=O)Nc3ccc(Cl)cc3)c2C(N)=O)C1 (stereo not drawn) [compound 71]
IC50 [10]: 9.75 µM

C[N+]1(CC2CCCCC2)CCc2c(sc(NC(=O)Nc3ccc(Cl)cc3)c2C(N)=O)C1 (stereo not drawn) [compound 76]
IC50 [10]: > 30 µM

CC1(C)Cc2c(sc(NC(=O)Nc3ccc(Cl)cc3)c2C(N)=O)C(C)(C)N1.Cl [compound 87]
metabolic stability ([5]; in vitro ADME profiling): excellent | air oxidation [6]: resistant to the oxidation pathway | IC50 [8]: > 300 µM | CYP stability or inhibition [9]: no issues

CN1[C@@H]2CC[C@H]1c1sc(NC(=O)Nc3ccc(Cl)cc3)c(C(N)=O)c1C2.Cl [compound 92]
protective activity (in words) [1]: significantly reduced activity | eudismic ratio (ER) [1]: 26.7

Cl.NC(=O)c1c(NC(=O)Nc2ccc(Cl)cc2)sc2c1C[C@H]1CC[C@@H]2N1 [compound 95]
protective activity (in words) [1]: significantly reduced activity | eudismic ratio (ER) [1]: 14.7

Cl.NC(=O)c1c(NC(=O)Nc2ccc(Cl)cc2)sc2c1[C@H]1CC[C@@H](C2)N1 [compound 98]
protective activity (in words) [1]: significantly reduced activity

NC(=O)c1c(NC(=O)Nc2ccc(Cl)cc2)sc2c1[C@@H]1CC[C@H](C2)N1 [compound 99]
EC50 ([1]; Danio rerio, read-out: HC50, text): 0.033 µM

(+)-2-[3-(4-Chlorophenyl)ureido]-9-methyl-5,6,7,8-tetrahydro-4H-5,8-epiminocyclohepta[b]thiophene-3-carboxamide [compound 90]
interference with neomycin minimal inhibitory concentration (MIC) [4]: no interference | interference in amikacin MIC [11]: no interference | EC50 [1, 13]: 0.12 µM | interference in MIC for tobramycin, amikacin, kanamycin and neomycin [12]: no interference

(+/−)-2-[3-(4-Chlorophenyl)ureido]-9-methyl-5,6,7,8-tetrahydro-4H-5,8-epiminocyclohepta[b]thiophene-3-carboxamide [compound 88]
EC50 [1, 13]: 0.36 µM

(−)-2-[3-(4-Chlorophenyl)ureido]-9-methyl-5,6,7,8-tetrahydro-4H-5,8-epiminocyclohepta[b]thiophene-3-carboxamide [compound 89]
protective activity (in words) [1]: significantly reduced activity | EC50 [1, 13]: 2.25 µM
